# Data: patent US8981094B2, “Piperidine/piperazine derivatives” (Janssen Pharmaceutica N.V., priority 2007, dated 2015)
# Molecular target: T1, human DGAT1 (Homo sapiens, UniProt O75907)
# T1 construct: FLAG (N); made in house; host or cells: SF9 insect cells (pFastBac baculovirus); total cell membranes
# T1 sequence (O75907 1-488): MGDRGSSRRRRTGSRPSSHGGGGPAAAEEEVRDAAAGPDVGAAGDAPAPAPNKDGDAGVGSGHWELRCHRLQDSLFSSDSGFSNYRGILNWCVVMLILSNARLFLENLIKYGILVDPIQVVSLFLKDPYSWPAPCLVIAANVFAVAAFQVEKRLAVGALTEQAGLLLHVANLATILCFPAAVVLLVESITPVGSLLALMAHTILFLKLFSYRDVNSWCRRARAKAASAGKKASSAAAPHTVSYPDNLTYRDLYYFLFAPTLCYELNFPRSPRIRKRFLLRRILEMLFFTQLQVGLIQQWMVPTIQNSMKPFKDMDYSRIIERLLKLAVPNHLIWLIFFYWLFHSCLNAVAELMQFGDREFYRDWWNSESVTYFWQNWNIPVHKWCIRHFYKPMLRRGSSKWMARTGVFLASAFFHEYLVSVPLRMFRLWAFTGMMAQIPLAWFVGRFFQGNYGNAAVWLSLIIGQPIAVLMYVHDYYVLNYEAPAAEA
# Experiment: Inhibition of DGAT1 activity, FlashPlate assay with DGAT1 membrane preparations and substrate micelles
# Format: biochemical
# Details: pIC50 = -logIC50, IC50 values expressed in M
# From the text: A) Measurement of Inhibition of DGAT1 Activity by the Present Compounds
# The inhibiting activity of the present compounds on DGAT1 activity was screened in a single well procedure assay using DGAT1 comprising membrane preparations and DGAT1 substrate comprising micelles and determining formed radio-active triacylglycerol coming in close proximity of a flashplate surface by radio luminescence.
# Said assay is described in full detail in WO2006/067071, the content of which is incorporated herein by reference.
# By DGAT1 activity is meant the transfer of coenzyme A activated fatty acids to the 3-position of 1,2-diacylglycerols, thus forming a triglyceride molecule, by enzyme DGAT1.
# human DGAT1 (NM012079.2) was cloned into the pFastBac vector, containing translation start, a FLAG-tag at the N-terminus as described in literature and a viral Kozak sequence (AAX) preceding the ATG to improve expression in insect cells. Expression was done as described in literature (Cases, S., Smith, S. J., Zheng, Y., Myers H. M., Lear, S. R., Sande, E., Novak, S., Collins, C., Welch, C. B., Lusis, A. J., Erickson, S. K. and Farese, R. V. (1998) Proc. Natl. Acad. Sci. USA 95, 13018-13023.) using SF9 cells.
# 72 h transfected SF9 cells were collected by centrifugation (13000 rpm-15 min-4° C.) and lysed in 2×500 ml lysisbuffer (0.1M Sucrose, 50 mM KCl, 40 mM KH2PO4, 30 mM EDTA pH 7.2. Cells were homogenized by cell disruptor. After centrifugation 1380 rpm-15 min-4° C. (SN discarded), pellet was resuspended in 500 ml lysisbuffer and total cell membranes collected by ultracentrifugation at 34000 rpm(100 000 g) for 60 min (4° C.). The collected membranes were resuspended in lysis buffer, divided in aliquots and stored with 10% glycerol at −80° C. until use.
# Add 1 ml dioleoyl-sn-glycerol (10 mg/ml) to 10 ml of L-α-phosphatidylcholine (1 mg/ml) and 10 ml of L-α-phosphatidyl-L-serine (1 mg/ml) in a thick glass recipient. Evaporate under nitrogen and put on ice for 15 minutes. Reconstitute in 10 ml Tris/HCl (10 mM, pH 7.4) by sonication on ice. The sonification process consists of sonification cycles of 10 seconds in the sonification bath followed by 10 seconds cool down on ice and repeating this sonification cycle till a homogeneous solution is obtained (takes about 15 minutes). The thus obtained micelles are stored at −20° C. till later use and contain DAG at a final concentration of 1.61 mM.
# c) Substrate mix (for 1 384 well plate=3840 μl) • 612 μl micelles stock (51 μM final) • 16.6 μl oleoylCoA 9.7 mM • 23 μl [^3H]-oleoylCoA (49 Ci/mmol, 500 μCi/ml) • 3188.4 μl Tris pH 7.4, 10 mM
# d) Enzyme mix (for 1 384 well plate=3520 μl) (5 μg/ml) • Add 11.73 μl of DGAT membrane stock (1500 μg/ml stock) to 3508 μl assay buffer.
# e) Stop mix (for 1 384 well plate=7.68 ml) (250 mM) • Add 384 μl of N-ethylmaleimide (5M) to 3.456 ml DMSO 100%, and further dilute 3.84 ml of said solution with 3.84 ml DMSO 10%.
# DGAT activity in membrane preparations was assayed in 50 mM Tris-HCl (pH 7.4), 150 mM MgCl2, 1 mM EDTA and 0.2% BSA, containing 50 μM DAG, 32 μg/ml PC/PS and 8.4 μM [^3H]-oleoylCoA (at a specific activity of 30 nCi/well) in a final volume of 50 μl in 384-well format using the red shifted Basic Image FlashPlate™ (Perkin Elmer Cat.No. SMP400).
# In detail, 10 μl enzyme mix and 10 μl substrate mix were added to 30 μl of assay buffer, optionally in the presence of 1 μl DMSO (blank and controls) or 1 μl of the compound to be tested. This reaction mixture was incubated for 120 minutes at 37° C. and the enzymatic reaction stopped by adding 20 μl of the stop mix. The plates were sealed and the vesicles allowed to settle overnight at room temperature. Plates were centrifuged for 5 minutes at 1500 rpm and measured in Leadseeker. […]
row,SMILES,IC50
1,CN(C)CCNC(=O)c1cc(Cl)c(NC(=O)N2CCN(c3ccc(NC(=O)CCCc4ccccc4)cc3)CC2)c(Cl)c1 [Compound 321],91.2 nM
2,O=C(NCc1cccc(N2CCCC2)c1)c1ccc(N2CCN(C(=O)Cc3c(Cl)cc(CN4CCCC4)cc3Cl)CC2)cc1 [Compound 267],107 nM
3,C#CCCC(=O)Nc1ccc(N2CCN(C(=O)Nc3c(Cl)cccc3Cl)CC2)cc1 [Compound 139],120 nM
4,CCCC(=O)N(C)CC(=O)Nc1ccc(N2CCN(C(=O)Nc3c(Cl)cccc3Cl)CC2)cc1 [Compound 169],53.7 nM
5,O=C(CCN(Cc1ccccc1Cl)S(=O)(=O)c1ccccc1[N+](=O)[O-])Nc1ccc(N2CCN(C(=O)Nc3c(Cl)cccc3Cl)CC2)cc1 [Compound 6],46.8 nM
6,C=CCNCC(=O)Nc1ccc(C2CCN(C(=O)Nc3c(Cl)cccc3Cl)CC2)cc1 [Compound 20],575 nM
7,CN(C)CC(=O)Nc1ccc(C2CCN(C(=O)Nc3c(Cl)cccc3Cl)CC2)cc1 [Compound 109],2340 nM
8,CC(=O)NC1(C(=O)Nc2ccc(N3CCN(C(=O)Nc4c(Cl)cccc4Cl)CC3)cc2)CCCC1 [Compound 2],2880 nM
9,O=C(CCCc1ccccc1)Nc1ccc(N2CCN(C(=O)C(O)c3ccc(Br)cc3)CC2)cc1 (stereo not drawn) [Compound 349],6030 nM
10,O=C(CCN1CCOCC1)Nc1ccc(C2CCN(C(=O)Nc3c(Cl)cccc3Cl)CC2)cc1 [Compound 125],646 nM
11,CCCCCCCNCC(=O)Nc1ccc(C2CCN(C(=O)Nc3c(Cl)cccc3Cl)CC2)cc1 [Compound 115],204 nM
12,C=CCC(N)C(=O)Nc1ccc(C2CCN(C(=O)Nc3c(Cl)cccc3Cl)CC2)cc1 (stereo not drawn) [Compound 146],10500 nM
13,COc1ccc(CC(=O)Nc2ccc(N3CCN(C(=O)Nc4c(Cl)cc(OC)cc4OC)CC3)cc2)cc1 [Compound 191],44.7 nM
14,CCc1cccc(N2CCN(CC(=O)Nc3ccc(C4CCN(C(=O)Nc5c(Cl)cccc5Cl)CC4)cc3)CC2)c1 [Compound 106],229 nM
15,COc1ccc(CNC(=O)c2ccc(N3CCN(C(=O)Nc4c(Cl)cncc4Cl)CC3)cc2)cc1 [Compound 245],145 nM
16,CC(C)C(CC(=O)Nc1ccc(C2CCN(C(=O)Nc3c(Cl)cccc3Cl)CC2)cc1)NC(=O)OC(C)(C)C (stereo not drawn) [Compound 215],58.9 nM
17,O=C(NCc1cccc(N2CCCC2)c1)c1ccc(N2CCN(C(=O)Nc3c(Cl)cc(CCN4CCCC4)cc3Cl)CC2)cc1 [Compound 227],11.7 nM
18,CC(CN)C(=O)Nc1ccc(C2CCN(C(=O)Nc3c(Cl)cccc3Cl)CC2)cc1 (stereo not drawn) [Compound 23],2570 nM
19,COCCN(C)CC(=O)Nc1ccc(C2CCN(C(=O)Nc3c(Cl)cccc3Cl)CC2)cc1 [Compound 110],1410 nM
20,O=C(CCCc1ccccc1)Nc1ccc(N2CCN(C(=O)Nc3ccccc3[N+](=O)[O-])CC2)cc1 [Compound 80],589 nM
21,CC(C)CC(=O)N(C)CC(=O)Nc1ccc(N2CCN(C(=O)Nc3c(Cl)cccc3Cl)CC2)cc1 [Compound 168],30.9 nM
22,CC(C)(C)OC(=O)NC(CC#N)C(=O)Nc1ccc(C2CCN(C(=O)Nc3c(Cl)cccc3Cl)CC2)cc1 (stereo not drawn) [Compound 211],126 nM
23,CC(C)(C)OC(=O)CCC(=O)Nc1ccc(N2CCN(C(=O)Nc3c(Cl)cccc3Cl)CC2)cc1 [Compound 279],6.76 nM

row,SMILES,IC50
1,CCC(C)C(NC(=O)OC(C)(C)C)C(=O)Nc1ccc(C2CCN(C(=O)Nc3c(Cl)cccc3Cl)CC2)cc1 (stereo not drawn) [Compound 213],107 nM
2,O=C(CCCc1ccccc1)Nc1ccc(N2CCN(C(=O)C(O)c3cccc(F)c3F)CC2)cc1 (stereo not drawn) [Compound 327],129 nM
3,CCC(=O)N(C)CC(=O)Nc1ccc(N2CCN(C(=O)Nc3c(Cl)cccc3Cl)CC2)cc1 [Compound 170],245 nM
4,CCCNCC(=O)Nc1ccc(C2CCN(C(=O)Nc3c(Cl)cccc3Cl)CC2)cc1 [Compound 122],562 nM
5,O=C(CCC(=O)OCc1ccccc1)Nc1ccc(N2CCN(C(=O)Nc3c(Cl)cccc3Cl)CC2)cc1 [Compound 302],20.9 nM
6,COCCNC(=O)c1cc(Cl)c(NC(=O)N2CCN(c3ccc(NC(=O)CCCc4ccccc4)cc3)CC2)c(Cl)c1 [Compound 306],26.3 nM
7,CC(N)C(=O)Nc1ccc(C2CCN(C(=O)Nc3c(Cl)cccc3Cl)CC2)cc1 (stereo not drawn) [Compound 148],7080 nM
8,Cc1ccc(C)c(N2CCN(CC(=O)Nc3ccc(C4CCN(C(=O)Nc5c(Cl)cccc5Cl)CC4)cc3)CC2)c1 [Compound 104],126 nM
9,CC(=O)NCCNC(=O)c1cc(Cl)c(NC(=O)N2CCN(c3ccc(NC(=O)CCCc4ccccc4)cc3)CC2)c(Cl)c1 [Compound 314],51.3 nM
10,CN(C)C(=O)c1cc(Cl)c(NC(=O)N2CCN(c3ccc(NC(=O)CCCc4ccccc4)cc3)CC2)c(Cl)c1 [Compound 284],8.13 nM
11,O=C(CN1CCN(c2cccc(C(F)(F)F)c2)CC1)Nc1ccc(C2CCN(C(=O)Nc3c(Cl)cccc3Cl)CC2)cc1 [Compound 103],398 nM
12,O=C(CCCc1ccccc1)Nc1ccc(N2CCN(C(=O)Nc3c(Cl)cc(C(=O)N4CCOCC4)cc3Cl)CC2)cc1 [Compound 294],12.3 nM
13,CN(C)C(=O)CCC(=O)Nc1ccc(N2CCN(C(=O)Nc3c(Cl)cccc3Cl)CC2)cc1 [Compound 137],3390 nM
14,O=C(CCCc1ccccc1)Nc1ccc(N2CCN(C(=O)Nc3c(Cl)cccc3Cl)CC2)c(CO)c1 [Compound 326],126 nM
15,CSCC(NC(=O)OC(C)(C)C)C(=O)Nc1ccc(C2CCN(C(=O)Nc3c(Cl)cccc3Cl)CC2)cc1 (stereo not drawn) [Compound 210],155 nM
16,O=C(CCCc1ccccc1)Nc1ccc(N2CCN(C(=O)C(O)c3c(Cl)cccc3Cl)CC2)cc1 (stereo not drawn) [Compound 315],58.9 nM
17,"CC(O)c1cc(Cl)c(NC(=O)N2CCN(c3ccc(NC(=O)CCCc4ccccc4)cc3)CC2)c(Cl)c1 (single isomer, unassigned) [Compound 270]",2.14 nM
18,COC(=O)c1cc(Cl)c(NC(=O)N2CCN(c3ccc(NC(=O)CCCc4ccccc4)cc3)CC2)c(Cl)c1 [Compound 47],135 nM
19,C=CCC(NC(=O)OC(C)(C)C)C(=O)Nc1ccc(C2CCN(C(=O)Nc3c(Cl)cccc3Cl)CC2)cc1 (stereo not drawn) [Compound 207],209 nM
20,CN(C)C(=O)CN(C)C(=O)c1cc(Cl)c(NC(=O)N2CCN(c3ccc(NC(=O)CCCc4ccccc4)cc3)CC2)c(Cl)c1 [Compound 296],14.8 nM
21,O=C(CN1CCOCC1)Nc1ccc(C2CCN(C(=O)Nc3c(Cl)cccc3Cl)CC2)cc1 [Compound 111],1200 nM
22,COc1ccc(CC(=O)Nc2ccc(N3CCN(C(=O)Cc4c(Cl)cc(CN5CCCC5)cc4Cl)CC3)cc2)cc1 [Compound 351],245 nM
